The term pKi denotes −log10 of the Ki, conventionally taken in molar units.

Here are results for 19 molecules from patent US5610158A, “4-oxo- and 4H-imidazo(5,1-c)(1,4)benzoxazines useful as benzodiazepine receptor-binding agents” (The Upjohn Company, priority 1994, dated 1997).

pKi: −log10 of the molar value.

This experiment concerns the target benzodiazepine receptors. Put plainly: displacement of radioactive labelled flunitrazepam from benzodiazepine receptors. The class given is binding. The method, then:
In the following Table, Ki values are shown for Examples 1-19 which include comparative compounds 1, 7, 9 and 11, which are not compounds of the subject invention but are structurally similar.
The Ki value is determined from a concentration response curve obtained in the presence and absence of a fixed concentration of competitive […], flunitrazepam. […] The lower Ki value indicates a higher affinity for benzodiazepine.
As to `CC(C)(C)OC(=O)Nc1ccc2c(c1)OCc1c(-c3noc(C4CC4)n3)ncn1-2` [Example 2, 7-(Amino(t-butoxycarbonyl))-3-(5-cyclopropyl-1,2,4-oxadiazol-3-yl)-4H-imidazo(5,1-c)(1,4)benzoxazine], the pKi was 5.00.

On to `Nc1ccc2c(c1)OCc1c(-c3noc(C4CC4)n3)ncn1-2` [Example 5, 7-Amino-3-(5-cyclopropyl-1,2,4-oxadiazol-3-yl)-4H-imidazo(5,1-c)(1,4)benzoxazine], for which the pKi is 7.18.

Regarding `CN(C)c1noc(-c2ncn3c2COc2cc(F)ccc2-3)n1` [Example 18, 3-(3-dimethylamino-1,2,4-oxadiazol-5-yl)-7-fluoro-4H-imidazo(5,1-c)(1,4)benzoxazine], the pKi is 6.81.

`c1ccc2c(c1)OCc1c(-c3noc(C4CC4)n3)ncn1-2` [Example 1, 3-(5-Cyclopropyl-1,2,4-oxadiazol-3-yl)-4H-imidazo(5,1-c)(1,4)benzoxazine, reference compound]: the pKi is 7.40.

With `CC(C)(C)c1nc(-c2ncn3c2COc2cc(F)ccc2-3)no1` [Example 17, 3-(5-Tert-butyl-1,2,4-oxadiazol-3-yl)-7-fluoro-4H-imidazo(5,1-c)(1,4)benzoxazine], the pKi was 6.35.

Regarding `CC(C)(C)OC(=O)c1ncn2c1COc1c-2ccc(F)c1C#N` [Example 19, Tert-butyl 6-cyano-7-fluoro-4H-imidazo(5,1-c)(1,4)benzoxazine-3-carboxylate], the pKi is 8.34.

As to `Fc1ccc2c(c1)OCc1c(-c3noc(C4CC4)n3)ncn1-2` [Example 13, 3-(5-Cyclopropyl-1,2,4-oxadiazol-3-yl)-7-fluoro-4H-imidazo(5,1-c)(1,4)benzoxazine], the pKi is 8.07.

Turning to `CC(C)(C)OC(=O)Nc1ccc2c(c1)OC(OC(=O)c1ccccc1)c1c(-c3noc(C4CC4)n3)ncn1-2` (stereo not shown) [Example 6, 7-(Amino(t-butoxycarbonyl))3-(5-cyclopropyl-1,2,4-oxadiazol-3-yl)-4-(benzoyloxy)-4H-imidazo(5,1-c)(1,4)benzoxazine], the pKi was 5.00.

Take `CC1(C)Oc2ccccc2-n2cnc(-c3noc(C4CC4)n3)c21` [Example 14, 3-(5-Cyclopropyl-1,2,4-oxadiazol-3-yl)-4,4-dimethyl-4H-imidazo(5,1-c)(1,4)benzoxazine]: the pKi was 7.17.

For the molecule `CC(C)(C)OC(=O)c1ncn2c1COc1cc(F)ccc1-2` [Example 16, Tert-butyl 7-fluoro-4H-imidazo(5,1-c)(1,4)benzoxazine-3-carboxylate], the negative-log Ki (pKi) was 7.49.

Take `OC1Oc2ccccc2-n2cnc(-c3noc(C4CC4)n3)c21` (stereo not shown) [Example 4, 3-(5-Cyclopropyl-1,2,4-oxadiazol-3-yl)-4-hydroxy-4H-imidazo(5,1-c)(1,4)benzoxazine]: the pKi is 6.93.

For the molecule `CC(C)(C)OC(=O)c1ncn2c1COc1ccccc1-2` [Example 11, Tert-butyl 4H-imidazo(5,1-c)(1,4)benzoxazine-3-carboxylate, reference compound], the pKi is 7.16.

As for `CCOC(=O)c1ncn2c1COc1cc(F)ccc1-2` [Example 15, Ethyl 7-fluoro-4H-imidazo(5,1-c)(1,4)benzoxazine-3-carboxylate], the negative logarithm of the Ki (pKi) is 8.34.

Regarding `O=C(OC1Oc2ccccc2-n2cnc(-c3noc(C4CC4)n3)c21)c1ccccc1` (stereo not shown) [Example 3, 3-(5-Cyclopropyl-1,2,4-oxadiazol-3-yl)-4-(benzoyloxy)-4H-imidazo(5,1-c)(1,4)benzoxazine], the pKi is 6.92.

Turning to `O=C(Nc1ccc2c(c1)OCc1c(-c3noc(C4CC4)n3)ncn1-2)C(F)(F)F` [Example 8, 7-(Amino(trifluoroacetyl))-3-(5-cyclopropyl-1,2,4-oxadiazol-3-yl)-4H-imidazo(5,1-c)(1,4)benzoxazine], the pKi is 5.00.

On to `c1ccc2c(c1)OCc1c(-c3nc(C4CC4)no3)ncn1-2` [Example 9, 3-(3-Cyclopropyl-1,2,4-oxadiazol-5-yl)-4H-imidazo(5,1-c)(1,4)benzoxazine, reference compound], for which the pKi is 7.14.

For the molecule `O=c1oc2ccccc2n2cnc(-c3noc(C4CC4)n3)c12` [Example 10, 3-(5-Cyclopropyl-1,2,4-oxadiazol-3-yl)-4-oxo-4H-imidazo(5,1-c)(1,4)benzoxazine], the pKi is 6.18.

With `CC1Oc2ccccc2-n2cnc(-c3noc(C4CC4)n3)c21` (stereo not shown) [Example 12, 3-(5-Cyclopropyl-1,2,4-oxadiazol-3-yl)-4-methyl-4H-imidazo(5,1-c)(1,4)benzoxazine], the pKi is 6.94.

Consider `CCOC(=O)c1ncn2c1COc1ccccc1-2` [Example 7, Ethyl 4H-imidazo(5,1-c)(1,4)benzoxazine-3-carboxylate, reference compound], for which the pKi is 7.22.
